From publication PMC7933320, “Cytochalasins from Xylaria sp. CFL5, an Endophytic Fungus of Cephalotaxus fortunei” (Natural Products and Bioprospecting, 2020) come the findings set out here.

One data set has as its target T1, LAG3/MHC II (Homo sapiens, UniProt P18627).
T1 sequence (P18627 23-450 limits assumed): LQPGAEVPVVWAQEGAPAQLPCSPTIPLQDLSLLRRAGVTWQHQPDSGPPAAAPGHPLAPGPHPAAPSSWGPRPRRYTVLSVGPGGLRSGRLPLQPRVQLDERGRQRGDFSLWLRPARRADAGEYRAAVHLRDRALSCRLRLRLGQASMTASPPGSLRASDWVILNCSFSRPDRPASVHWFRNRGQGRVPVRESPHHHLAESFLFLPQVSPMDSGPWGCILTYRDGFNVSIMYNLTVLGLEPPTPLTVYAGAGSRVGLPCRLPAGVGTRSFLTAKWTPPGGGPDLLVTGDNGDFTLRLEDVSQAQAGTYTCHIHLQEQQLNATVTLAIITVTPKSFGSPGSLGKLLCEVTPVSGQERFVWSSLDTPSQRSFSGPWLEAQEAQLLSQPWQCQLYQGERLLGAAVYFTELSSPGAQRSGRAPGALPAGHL
Kind of data set: LAG3/MHC II binding assay (HTRF, Cisbio kit). As to conditions: for inhibition at 50 µM: read-out: inhibition rate against LAG3/MHC II.

A further data set deals with T2, LAG3/FGL1 (Homo sapiens, UniProt P18627).
T2 sequence (P18627 23-450 limits assumed): T1 sequence (P18627 23-450 limits assumed)
Briefly: LAG3/FGL1 binding assay (HTRF, Cisbio kit). As to conditions: for inhibition at 50 µM: read-out: inhibition rate against LAG3/FGL1. For orientation: Time-resolved FRET reads energy transfer from a long-lived donor to a nearby acceptor.

Data set [1] in a line: Cytotoxicity by the CCK8 assay. The class given is cell-based. As to conditions: human, AGS cells, read-out: inhibition rate, cytotoxicity against AGS cells. The method, then: With adriamycin as the positive control, compounds 1, 4–9 were assessed for cytotoxicity against AGS, U251, and MDA-MB-231 by the CCK8 assay (Tables 3 and 4).
A general note: Tetrazolium assays rely on reduction of a dye to a coloured formazan, in cell work by metabolically active cells.

Molecules are shown by their SMILES.

Protocol for LAG3/FGL1: (§1) Using the following fluorescence intensity (F) measurements at 665 nm, such as the signals of positive control (Fp), blank control (Fb), and experimental groups (Fe), the inhibition rate was calculated at each of the compound concentration levels. The inhibitory activity of compound against the interaction of LAG3 with MHC II was evaluated based on the formula as follow: Inhibition rate = (Fp − Fe)/(Fp − Fb) × 100%. IC50 values were calculated by linear regression of a dose-dependent inhibition rate curve.
The tested principles and methods were similar to those of LAG3/MHC II. Using LAG3/FGL1 binding assay kit from Cisbio, the inhibition activity of tested compounds on the binding between LAG3 and MHC II was evaluated. […] Moreover, the compositions of tested groups, positive control, negative control, blank control were analogical with those of LAG3/MHC II kit. The experimental operations and statistical analysis were also identical with above-mentioned LAG3/MHC II kit.
Protocol for LAG3/MHC II: Utilizing HTRF (Homogeneous Time-resolved Fluorescence) technology [34, 35], the inhibition activity of tested compounds interfering in the interaction between MHC II and LAG3 proteins was evaluated. The activity was measured using LAG3/MHC II binding assay kit commercially available from Cisbio. […] 2 μL tested solutions, 4 μL Tag1-LAG3 protein, and 4 μL Tag2-MHC II protein were added in sterile 96-well dishes. After incubation for 15 min in room temperature, 5 μL anti-Tag1-Tb^3+ and 5 μL anti-Tag2-XL665 (or 10 μL of pre-mixed anti-tag detection reagents) were added into each well. The concentration of DMSO in each well was kept below 0.5% and the final volume in each well was 20 μL in the moment. Then the 96-well dishes were kept incubating for 1 h to overnight at room temperature. Subsequently, remove the plate sealer and read specific emission signal at 665 nm on an HTRF compatible reader. […] The negative control consisted of 4 μL Tag2-MHC II protein, 5 μL anti-Tag1-Tb^3+ and 5 μL anti-Tag2-XL665, as well as 6 μL diluent. In blank control, 5 μL anti-Tag1-Tb^3+, 10 μL diluent, and 5 μL detection buffer were existed.
as §1

On to `CC(=O)OC1C=CC(C)C(=O)C(C)CC=CC2C=C(C)C(C)C3C(Cc4ccccc4)NC(=O)C213` (stereo not shown) [Compound 1, xylariasin A], for which, on LAG3/MHC II, the IC50 turned out to be 4.74 µM and the inhibition at 50 µM was found to be 82.4%. At LAG3/FGL1, the IC50 turned out to be 11.8 µM and the inhibition at 50 µM turned out to be 83.9%.
`CC(=O)OC1C=CC(C)(O)C(=O)C(C)CC=CC2C=C(C)C(C)C3C(Cc4ccccc4)NC(=O)C213` (stereo not shown) [Compound 4, zygosporin G]: the inhibition at 50 µM at LAG3/MHC II is 55.7%; at LAG3/FGL1, 24.9%.
For the molecule `CC(=O)OC1C=CC(C)(O)C(=O)C(C)CC=CC2C=C(CO)C(C)C3C(Cc4ccccc4)NC(=O)C213` (stereo not shown) [Compound 5, 12-hydroxyl zygosporin G], on LAG3/MHC II, the IC50 was determined as 3.18 µM and the inhibition at 50 µM is 85.3%. Further, the inhibition at 50 µM on LAG3/FGL1 was 79.1%.
In the case of `C=C1[C@@H](C)[C@H]2[C@H](Cc3ccccc3)NC(=O)[C@]23[C@H](OC(C)=O)/C=C/[C@@](C)(O)C(=O)[C@@H](C)C/C=C/[C@H]3[C@@H]1O` [Compound 6, cytochalasin D], on LAG3/FGL1, the inhibition at 50 µM came to 2.66%. Moreover, the inhibition at 5 µM in data set [1] was determined as 94%.
Consider `C=C1C(C)C2C(Cc3ccccc3)NC(=O)C23C(OC(C)=O)C=CC(C)C(=O)C(C)CC=CC3C1O` (stereo not shown) [Compound 7, zygosporin E], for which, on LAG3/MHC II, the IC50 is 2.37 µM and the inhibition at 50 µM worked out at 82.7%. Also, on LAG3/FGL1, the IC50 came out at 4.39 µM and the inhibition at 50 µM worked out at 92.7%.
The matching figures for `CC(=O)OC1C=CC(C)(O)C(=O)C(C)CC=CC2C(=O)C(C)C(C)C3C(Cc4ccccc4)NC(=O)C123` (stereo not shown) [Compound 8]: 2.58 µM, 78.9%, 7.45 µM and 92.5%.
Take `CC(=O)OC1C=CC(C)(O)C(=O)C(C)CC=CC2C(O)C(C)=C(C)C3C(Cc4ccccc4)NC(=O)C123` (stereo not shown) [Compound 9, cytochalasin C]: the inhibition at 50 µM came out at 77.4% at LAG3/MHC II and 58.4% at LAG3/FGL1. Besides, the inhibition at 5 µM in data set [1] turned out to be 64%.

For orientation: IC50 means the concentration needed to halve the response being measured. A lower IC50 goes with higher potency.
